Experimental data: the kinase profiling compilation of Christmann-Franck et al. (2016)
Values joined by “and” are separate entries in the source; they are usually repeats but may differ in a detail not shown here. Identical values can stand only once.

How the values were obtained:
Experiment in all cases: radiometric filter-binding kinase assay, Kinase HotSpot
Details in all cases: compound 0.5 µM; ATP 10 µM
TSSK1B (human) = TSSK1B (human) (UniProt Q9BXA7)
NTRK1 (human) = NTRK1 (human) (UniProt P04629)
STK4 (human) = STK4 (human) (UniProt Q13043)
TBK1 (human) = TBK1 (human) (UniProt Q9UHD2)
RPS6KB2 (human) = RPS6KB2 (human) (UniProt Q9UBS0)
RAF1 (human) = RAF1 (human) (UniProt P04049)
FGFR3 (human) = FGFR3 (human) (UniProt P22607)
CSNK1G3 (human) = CSNK1G3 (human) (UniProt Q9Y6M4)
MAPK12 (human) = MAPK12 (human) (UniProt P53778)
WEE1 (human) = WEE1 (human) (UniProt P30291)
ZAP70 (human) = ZAP70 (human) (UniProt P43403)
FYN (human) = FYN (human) (UniProt P06241)
CAMK2D (human) = CAMK2D (human) (UniProt Q13557)
MAPK14 (human) = MAPK14 (human) (UniProt Q16539)
CSNK1D (human) = CSNK1D (human) (UniProt P48730)
MYLK (human) = MYLK (human) (UniProt Q15746)
EPHA6 (human) = EPHA6 (human) (UniProt Q9UF33)
EPHB3 (human) = EPHB3 (human) (UniProt P54753)
PLK3 (human) = PLK3 (human) (UniProt Q9H4B4)
FES (human) = FES (human) (UniProt P07332)
IGF1R (human) = IGF1R (human) (UniProt P08069)
CDC42BPB (human) = CDC42BPB (human) (UniProt Q9Y5S2)
CSNK1G1 (human) = CSNK1G1 (human) (UniProt Q9HCP0)
EPHA8 (human) = EPHA8 (human) (UniProt P29322)
MAP4K4 (human) = MAP4K4 (human) (UniProt O95819)
PDGFRB (human) = PDGFRB (human) (UniProt P09619)
STK16 (human) = STK16 (human) (UniProt O75716)
STK24 (human) = STK24 (human) (UniProt Q9Y6E0)
HIPK2 (human) = HIPK2 (human) (UniProt Q9H2X6)
CAMK2B (human) = CAMK2B (human) (UniProt Q13554)
CDK2 CCNE1 (human) = CDK2 CCNE1 (human) (UniProt P24941+P24864)
MAP3K3 (human) = MAP3K3 (human) (UniProt Q99759)
TTK (human) = TTK (human) (UniProt P33981)
SGK3 (human) = SGK3 (human) (UniProt Q96BR1)
EPHA5 (human) = EPHA5 (human) (UniProt P54756)
IKBKB (human) = IKBKB (human) (UniProt O14920)
FER (human) = FER (human) (UniProt P16591)
MAPKAPK5 (human) = MAPKAPK5 (human) (UniProt Q8IW41)
CAMK1G (human) = CAMK1G (human) (UniProt Q96NX5)
CAMK1D (human) = CAMK1D (human) (UniProt Q8IU85)
CDK2 CCNA2 (human) = CDK2 CCNA2 (human) (UniProt P24941+P20248)
LYN (human) = LYN (human) (UniProt P07948)

CAMK2B (human), sequence (Q13554 whole entry, looked up): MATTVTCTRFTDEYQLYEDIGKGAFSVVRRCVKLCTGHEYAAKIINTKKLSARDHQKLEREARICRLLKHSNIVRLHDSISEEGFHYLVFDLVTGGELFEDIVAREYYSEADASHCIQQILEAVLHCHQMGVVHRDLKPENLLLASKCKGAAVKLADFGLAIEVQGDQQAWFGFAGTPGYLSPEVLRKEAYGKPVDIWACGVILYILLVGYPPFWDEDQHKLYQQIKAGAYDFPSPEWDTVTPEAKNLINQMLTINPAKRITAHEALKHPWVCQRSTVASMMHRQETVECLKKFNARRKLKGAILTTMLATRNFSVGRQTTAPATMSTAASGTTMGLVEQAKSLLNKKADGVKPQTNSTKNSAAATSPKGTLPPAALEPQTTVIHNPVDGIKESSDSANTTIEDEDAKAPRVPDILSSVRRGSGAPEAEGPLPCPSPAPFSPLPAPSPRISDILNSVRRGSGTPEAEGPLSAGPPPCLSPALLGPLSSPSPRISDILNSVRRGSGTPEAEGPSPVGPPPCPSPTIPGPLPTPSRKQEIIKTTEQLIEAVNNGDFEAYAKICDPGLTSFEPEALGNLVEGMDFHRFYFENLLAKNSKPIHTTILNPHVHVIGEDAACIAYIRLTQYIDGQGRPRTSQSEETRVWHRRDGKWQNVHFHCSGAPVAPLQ
EPHA8 (human), sequence (P29322 whole entry, looked up): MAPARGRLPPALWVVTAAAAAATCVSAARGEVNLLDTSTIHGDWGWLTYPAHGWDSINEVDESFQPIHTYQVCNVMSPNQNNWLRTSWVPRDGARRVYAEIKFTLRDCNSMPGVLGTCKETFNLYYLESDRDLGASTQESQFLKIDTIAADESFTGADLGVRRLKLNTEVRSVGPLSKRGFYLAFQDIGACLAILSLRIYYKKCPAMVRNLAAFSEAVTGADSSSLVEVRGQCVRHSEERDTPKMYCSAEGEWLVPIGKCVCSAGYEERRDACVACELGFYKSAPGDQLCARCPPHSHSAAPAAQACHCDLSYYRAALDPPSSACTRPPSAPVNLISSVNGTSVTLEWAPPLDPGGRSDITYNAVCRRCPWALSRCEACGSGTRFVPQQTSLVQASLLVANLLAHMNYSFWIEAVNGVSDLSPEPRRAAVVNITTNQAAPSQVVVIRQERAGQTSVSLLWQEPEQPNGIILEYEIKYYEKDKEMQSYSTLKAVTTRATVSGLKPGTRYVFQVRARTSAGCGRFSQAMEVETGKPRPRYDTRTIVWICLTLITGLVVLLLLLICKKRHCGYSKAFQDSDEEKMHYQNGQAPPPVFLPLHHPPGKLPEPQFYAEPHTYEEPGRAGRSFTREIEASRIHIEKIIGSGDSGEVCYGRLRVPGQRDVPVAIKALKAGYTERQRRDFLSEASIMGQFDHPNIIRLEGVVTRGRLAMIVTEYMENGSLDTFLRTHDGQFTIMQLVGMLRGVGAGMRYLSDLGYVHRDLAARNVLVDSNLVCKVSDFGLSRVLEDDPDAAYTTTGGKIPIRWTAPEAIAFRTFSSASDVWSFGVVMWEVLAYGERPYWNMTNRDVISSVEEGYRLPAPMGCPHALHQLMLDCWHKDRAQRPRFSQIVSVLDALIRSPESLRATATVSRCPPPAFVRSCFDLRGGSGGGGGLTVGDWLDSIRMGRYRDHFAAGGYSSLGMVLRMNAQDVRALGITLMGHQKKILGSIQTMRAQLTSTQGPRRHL
FER (human), sequence (P16591 whole entry, looked up): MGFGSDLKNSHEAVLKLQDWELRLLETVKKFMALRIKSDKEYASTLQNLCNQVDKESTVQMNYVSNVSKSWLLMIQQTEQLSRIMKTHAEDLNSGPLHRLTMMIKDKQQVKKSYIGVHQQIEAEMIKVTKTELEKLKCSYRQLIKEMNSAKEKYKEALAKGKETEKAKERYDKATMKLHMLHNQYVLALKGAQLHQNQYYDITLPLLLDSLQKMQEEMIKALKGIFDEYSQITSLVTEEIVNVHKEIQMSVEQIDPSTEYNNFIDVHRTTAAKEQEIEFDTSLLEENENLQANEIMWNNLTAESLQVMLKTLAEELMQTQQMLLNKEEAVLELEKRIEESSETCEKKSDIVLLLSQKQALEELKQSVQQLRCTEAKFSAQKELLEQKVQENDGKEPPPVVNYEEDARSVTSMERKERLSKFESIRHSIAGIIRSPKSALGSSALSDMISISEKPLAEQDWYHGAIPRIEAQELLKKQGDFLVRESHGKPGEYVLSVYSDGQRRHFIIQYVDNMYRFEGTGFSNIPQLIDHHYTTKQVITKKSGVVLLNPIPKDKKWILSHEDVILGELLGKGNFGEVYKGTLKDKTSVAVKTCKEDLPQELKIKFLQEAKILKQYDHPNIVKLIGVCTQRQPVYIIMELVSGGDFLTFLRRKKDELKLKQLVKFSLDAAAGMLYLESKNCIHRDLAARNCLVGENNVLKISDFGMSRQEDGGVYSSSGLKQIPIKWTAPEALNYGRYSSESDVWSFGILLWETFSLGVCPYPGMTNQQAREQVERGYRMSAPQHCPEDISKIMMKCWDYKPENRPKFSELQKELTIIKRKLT
NTRK1 (human), sequence (P04629 whole entry, looked up): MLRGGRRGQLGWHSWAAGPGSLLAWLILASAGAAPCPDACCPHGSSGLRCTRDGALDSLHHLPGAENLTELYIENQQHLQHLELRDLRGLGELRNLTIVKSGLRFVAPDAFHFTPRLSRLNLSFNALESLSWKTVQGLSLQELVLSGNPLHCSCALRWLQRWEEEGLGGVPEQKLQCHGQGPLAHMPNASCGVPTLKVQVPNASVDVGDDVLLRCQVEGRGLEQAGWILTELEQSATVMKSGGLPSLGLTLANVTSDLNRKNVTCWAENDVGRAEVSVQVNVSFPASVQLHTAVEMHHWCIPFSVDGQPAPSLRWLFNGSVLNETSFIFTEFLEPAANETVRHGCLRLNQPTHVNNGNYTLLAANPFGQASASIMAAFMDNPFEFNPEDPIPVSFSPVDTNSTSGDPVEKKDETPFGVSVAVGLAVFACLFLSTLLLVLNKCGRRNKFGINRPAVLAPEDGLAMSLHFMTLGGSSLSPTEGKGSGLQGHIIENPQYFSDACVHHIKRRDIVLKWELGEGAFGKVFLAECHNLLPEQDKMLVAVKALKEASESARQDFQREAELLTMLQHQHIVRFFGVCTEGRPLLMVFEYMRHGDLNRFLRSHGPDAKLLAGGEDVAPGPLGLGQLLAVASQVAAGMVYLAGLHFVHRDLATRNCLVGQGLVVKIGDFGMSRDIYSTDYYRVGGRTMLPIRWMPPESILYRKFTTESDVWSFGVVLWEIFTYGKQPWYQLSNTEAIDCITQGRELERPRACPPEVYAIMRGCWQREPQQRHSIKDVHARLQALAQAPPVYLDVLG
IGF1R (human), sequence (P08069 whole entry, looked up): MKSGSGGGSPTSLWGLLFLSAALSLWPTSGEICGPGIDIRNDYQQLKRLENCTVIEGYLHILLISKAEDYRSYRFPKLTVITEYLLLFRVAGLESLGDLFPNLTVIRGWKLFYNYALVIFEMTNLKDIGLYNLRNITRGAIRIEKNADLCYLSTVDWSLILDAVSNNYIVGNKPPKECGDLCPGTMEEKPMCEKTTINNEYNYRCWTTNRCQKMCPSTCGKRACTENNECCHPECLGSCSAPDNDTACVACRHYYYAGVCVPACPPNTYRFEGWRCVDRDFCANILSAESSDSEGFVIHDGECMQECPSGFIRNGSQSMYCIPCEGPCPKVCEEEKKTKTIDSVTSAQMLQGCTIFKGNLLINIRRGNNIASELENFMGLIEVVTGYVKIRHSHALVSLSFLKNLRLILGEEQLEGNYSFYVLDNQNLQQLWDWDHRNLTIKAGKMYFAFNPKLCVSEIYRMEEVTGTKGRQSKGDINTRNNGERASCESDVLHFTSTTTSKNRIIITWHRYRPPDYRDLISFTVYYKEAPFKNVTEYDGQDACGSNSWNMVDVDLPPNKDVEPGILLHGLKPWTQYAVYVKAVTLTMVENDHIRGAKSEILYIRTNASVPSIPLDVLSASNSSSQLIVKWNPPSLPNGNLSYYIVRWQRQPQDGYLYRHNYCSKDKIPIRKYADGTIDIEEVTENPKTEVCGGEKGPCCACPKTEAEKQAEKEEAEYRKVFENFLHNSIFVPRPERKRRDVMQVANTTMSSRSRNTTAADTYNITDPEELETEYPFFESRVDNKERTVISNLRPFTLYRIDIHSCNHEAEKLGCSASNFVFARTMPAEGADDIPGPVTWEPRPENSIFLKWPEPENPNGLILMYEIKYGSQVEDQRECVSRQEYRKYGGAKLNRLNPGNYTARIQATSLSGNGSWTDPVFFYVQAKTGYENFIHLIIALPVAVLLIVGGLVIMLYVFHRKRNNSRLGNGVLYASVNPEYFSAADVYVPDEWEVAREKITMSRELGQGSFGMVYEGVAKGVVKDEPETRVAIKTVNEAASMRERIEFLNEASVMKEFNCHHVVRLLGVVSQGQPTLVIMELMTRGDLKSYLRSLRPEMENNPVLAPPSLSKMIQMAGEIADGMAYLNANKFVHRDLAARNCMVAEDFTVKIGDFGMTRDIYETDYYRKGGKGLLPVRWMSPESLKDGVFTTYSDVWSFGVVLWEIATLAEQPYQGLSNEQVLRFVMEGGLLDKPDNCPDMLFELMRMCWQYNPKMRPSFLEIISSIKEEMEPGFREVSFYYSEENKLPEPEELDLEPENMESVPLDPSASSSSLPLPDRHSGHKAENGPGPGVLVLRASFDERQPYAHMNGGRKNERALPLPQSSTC
STK24 (human), sequence (Q9Y6E0 whole entry, looked up): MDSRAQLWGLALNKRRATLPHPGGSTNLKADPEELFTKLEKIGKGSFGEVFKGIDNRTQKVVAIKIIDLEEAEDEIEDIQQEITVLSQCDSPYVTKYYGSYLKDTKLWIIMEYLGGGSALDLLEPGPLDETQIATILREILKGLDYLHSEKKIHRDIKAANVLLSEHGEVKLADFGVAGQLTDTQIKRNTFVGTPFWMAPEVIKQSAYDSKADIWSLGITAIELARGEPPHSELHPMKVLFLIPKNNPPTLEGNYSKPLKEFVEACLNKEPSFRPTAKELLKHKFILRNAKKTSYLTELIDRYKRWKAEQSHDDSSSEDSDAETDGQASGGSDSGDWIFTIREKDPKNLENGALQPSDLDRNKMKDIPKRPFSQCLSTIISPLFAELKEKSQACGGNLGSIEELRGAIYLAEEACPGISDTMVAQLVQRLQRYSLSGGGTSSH

`COc1cc2ncnc(Nc3cccc(Cl)c3)c2cc1OC` was tested. Which residual activity (TSSK1B (human)) did it give?
The residual activity was 95.7%.

What about the residual activity (NTRK1 (human)) of the same molecule?
The residual activity was 92.6%.

What about the residual activity (STK4 (human)) of the same molecule?
Its residual activity is 92%.

What about the residual activity (TBK1 (human)) of the same molecule?
The residual activity was 78%.

What about the residual activity (RPS6KB2 (human)) of the same molecule?
The residual activity was 105%.

And the residual activity (RAF1 (human))?
Its residual activity is 78.4%.

And the residual activity (FGFR3 (human))?
Its residual activity is 88.5%.

And the residual activity (CSNK1G3 (human))?
Its residual activity is 92.4%.

And the residual activity (MAPK12 (human))?
The residual activity was 98.5%.

And the residual activity (WEE1 (human))?
Its residual activity is 92.4%.

And the residual activity (ZAP70 (human))?
Its residual activity is 102%.

And the residual activity (FYN (human))?
The residual activity was 85.7%.

And the residual activity (CAMK2D (human))?
Its residual activity is 96.1%.

What about the residual activity (MAPK14 (human)) of the same molecule?
The residual activity was 107%.

And the residual activity (CSNK1D (human))?
Its residual activity is 100%.

What about the residual activity (MYLK (human)) of the same molecule?
Its residual activity is 89%.

And the residual activity (EPHA6 (human))?
The residual activity was 27.8%.

And the residual activity (EPHB3 (human))?
Its residual activity is 99.1%.

What about the residual activity (PLK3 (human)) of the same molecule?
Its residual activity is 92.3%.

What about the residual activity (FES (human)) of the same molecule?
Its residual activity is 104%.

And the residual activity (IGF1R (human))?
The residual activity was 75.9%.

What about the residual activity (CDC42BPB (human)) of the same molecule?
Its residual activity is 84.9%.

What about the residual activity (CSNK1G1 (human)) of the same molecule?
Its residual activity is 99.9%.

What about the residual activity (EPHA8 (human)) of the same molecule?
Its residual activity is 81.5%.

And the residual activity (MAP4K4 (human))?
Its residual activity is 68.1%.

What about the residual activity (PDGFRB (human)) of the same molecule?
Its residual activity is 100%.

And the residual activity (STK16 (human))?
The residual activity was 101%.

What about the residual activity (STK24 (human)) of the same molecule?
Its residual activity is 96.8%.

And the residual activity (HIPK2 (human))?
The residual activity was 88.8%.

And the residual activity (CAMK2B (human))?
Its residual activity is 91.2%.

What about the residual activity (CDK2 CCNE1 (human)) of the same molecule?
The residual activity was 90.4%.

And the residual activity (MAP3K3 (human))?
The residual activity was 88.3%.

And the residual activity (TTK (human))?
Its residual activity is 108%.

And the residual activity (SGK3 (human))?
Its residual activity is 90.9%.

And the residual activity (EPHA5 (human))?
The residual activity was 68.3%.

And the residual activity (IKBKB (human))?
Its residual activity is 102%.

And the residual activity (FER (human))?
Its residual activity is 77.1%.

What about the residual activity (MAPKAPK5 (human)) of the same molecule?
Its residual activity is 89.5%.

And the residual activity (CAMK1G (human))?
Its residual activity is 93.6%.

And the residual activity (CAMK1D (human))?
Its residual activity is 96.6%.

How did the residual activity (TSSK1B (human)) turn out when `O=C1NC(=O)c2c1c1c3ccccc3n3c1c1c2c2ccccc2n1C1CCC3O1` was run?
The residual activity was 17.7%.

And the residual activity (NTRK1 (human))?
The residual activity was 4.98%.

And the residual activity (STK4 (human))?
Its residual activity is 3.56%.

What about the residual activity (TBK1 (human)) of the same molecule?
Its residual activity is 7.4%.

And the residual activity (RPS6KB2 (human))?
Its residual activity is 35%.

What about the residual activity (RAF1 (human)) of the same molecule?
Its residual activity is 121%.

What about the residual activity (FGFR3 (human)) of the same molecule?
Its residual activity is 36.3%.

And the residual activity (CSNK1G3 (human))?
The residual activity was 108%.

What about the residual activity (MAPK12 (human)) of the same molecule?
The residual activity was 113%.

And the residual activity (WEE1 (human))?
Its residual activity is 16.9%.

What about the residual activity (ZAP70 (human)) of the same molecule?
Its residual activity is 88.4%.

And the residual activity (FYN (human))?
Its residual activity is 59.9%.

And the residual activity (CAMK2D (human))?
Its residual activity is 7.03%.

What about the residual activity (MAPK14 (human)) of the same molecule?
The residual activity was 102%.

And the residual activity (CSNK1D (human))?
The residual activity was 93.8%.

What about the residual activity (MYLK (human)) of the same molecule?
Its residual activity is 4.01%.

What about the residual activity (EPHA6 (human)) of the same molecule?
Its residual activity is 63.9%.

And the residual activity (EPHB3 (human))?
The residual activity was 93.2%.

And the residual activity (PLK3 (human))?
Its residual activity is 52.5%.

What about the residual activity (FES (human)) of the same molecule?
The residual activity was 42.1%.

What about the residual activity (IGF1R (human)) of the same molecule?
Its residual activity is 63.8%.

And the residual activity (CSNK1G1 (human))?
Its residual activity is 96.1%.

And the residual activity (EPHA8 (human))?
Its residual activity is 89.9%.

What about the residual activity (MAP4K4 (human)) of the same molecule?
The residual activity was 0.995%.

And the residual activity (PDGFRB (human))?
Its residual activity is 19.1%.

What about the residual activity (STK16 (human)) of the same molecule?
Its residual activity is 58.1%.

What about the residual activity (STK24 (human)) of the same molecule?
The residual activity was 14.3%.

What about the residual activity (HIPK2 (human)) of the same molecule?
The residual activity was 32.6%.

What about the residual activity (CAMK2B (human)) of the same molecule?
Its residual activity is 9.85%.

What about the residual activity (CDK2 CCNE1 (human)) of the same molecule?
Its residual activity is 28.5%.

What about the residual activity (MAP3K3 (human)) of the same molecule?
Its residual activity is 18.4%.

What about the residual activity (TTK (human)) of the same molecule?
Its residual activity is 76.4%.

What about the residual activity (SGK3 (human)) of the same molecule?
Its residual activity is 71.7%.

What about the residual activity (EPHA5 (human)) of the same molecule?
Its residual activity is 78.7%.

What about the residual activity (IKBKB (human)) of the same molecule?
The residual activity was 97.8%.

What about the residual activity (FER (human)) of the same molecule?
The residual activity was 5.39%.

And the residual activity (CDK2 CCNA2 (human))?
The residual activity was 15.6%.

And the residual activity (MAPKAPK5 (human))?
The residual activity was 80.4%.

What about the residual activity (CAMK1G (human)) of the same molecule?
The residual activity was 56.5%.

And the residual activity (CAMK1D (human))?
The residual activity was 33.6%.

For `Oc1cccc(-c2nc(N3CCOCC3)c3oc4ncccc4c3n2)c1`, which residual activity (TSSK1B (human)) is on record?
Its residual activity is 93.4%.

What about the residual activity (NTRK1 (human)) of the same molecule?
The residual activity was 94.9%.

What about the residual activity (STK4 (human)) of the same molecule?
The residual activity was 93.3%.

What about the residual activity (TBK1 (human)) of the same molecule?
The residual activity was 93%.

And the residual activity (RPS6KB2 (human))?
Its residual activity is 95.8%.

And the residual activity (RAF1 (human))?
The residual activity was 79.1%.

What about the residual activity (FGFR3 (human)) of the same molecule?
Its residual activity is 101%.

And the residual activity (CSNK1G3 (human))?
Its residual activity is 99.9%.

And the residual activity (MAPK12 (human))?
Its residual activity is 93.4%.

And the residual activity (WEE1 (human))?
Its residual activity is 81.6%.

What about the residual activity (ZAP70 (human)) of the same molecule?
The residual activity was 91.4%.

What about the residual activity (FYN (human)) of the same molecule?
The residual activity was 91.7%.

And the residual activity (CAMK2D (human))?
The residual activity was 96.2%.

And the residual activity (CSNK1D (human))?
Its residual activity is 91.3%.

And the residual activity (MYLK (human))?
Its residual activity is 77.1%.

And the residual activity (EPHA6 (human))?
Its residual activity is 79%.

What about the residual activity (PLK3 (human)) of the same molecule?
Its residual activity is 94.6%.

What about the residual activity (FES (human)) of the same molecule?
Its residual activity is 98.8%.

What about the residual activity (IGF1R (human)) of the same molecule?
The residual activity was 97.1%.

And the residual activity (CDC42BPB (human))?
Its residual activity is 99.4%.

What about the residual activity (CSNK1G1 (human)) of the same molecule?
The residual activity was 89.4%.

What about the residual activity (EPHA8 (human)) of the same molecule?
The residual activity was 93.9%.

What about the residual activity (MAP4K4 (human)) of the same molecule?
The residual activity was 91.4%.

What about the residual activity (PDGFRB (human)) of the same molecule?
Its residual activity is 99.2%.

And the residual activity (STK16 (human))?
The residual activity was 91.7%.

And the residual activity (STK24 (human))?
Its residual activity is 100%.

What about the residual activity (HIPK2 (human)) of the same molecule?
Its residual activity is 102%.

What about the residual activity (CAMK2B (human)) of the same molecule?
The residual activity was 98.2%.

And the residual activity (CDK2 CCNE1 (human))?
The residual activity was 85.5%.

And the residual activity (LYN (human))?
Its residual activity is 102% and 98.3%.

What about the residual activity (TTK (human)) of the same molecule?
Its residual activity is 93.3%.

What about the residual activity (SGK3 (human)) of the same molecule?
Its residual activity is 95.8%.

What about the residual activity (EPHA5 (human)) of the same molecule?
Its residual activity is 102%.

What about the residual activity (IKBKB (human)) of the same molecule?
Its residual activity is 98.3%.

What about the residual activity (FER (human)) of the same molecule?
The residual activity was 97.8%.

And the residual activity (CDK2 CCNA2 (human))?
Its residual activity is 104%.

What about the residual activity (MAPKAPK5 (human)) of the same molecule?
The residual activity was 85.7%.

What about the residual activity (CAMK1G (human)) of the same molecule?
The residual activity was 99.2%.

What about the residual activity (CAMK1D (human)) of the same molecule?
Its residual activity is 121%.
